In patent publication US12139454B2, “Dimethylcyclobutanone compounds, dimethylcyclobutane compounds, and processes for preparing the same” (Shin-Etsu Chemical Co., Ltd., priority 2019, dated 2024):

Experiments:
[1] = test system: Planococcus citri; assay: Field sticky-trap luring test with lures in a navel orange field; type: in vivo; settings: inferred from lures A and C with high contents versus lure B with low contents
Text: The mixture of cis-(3-isopropenyl-2,2-dimethylcyclobutyl)methyl acetate, trans-(3-isopropenyl-2,2-dimethylcyclobutyl)methyl acetate, and (3-isopropylidene-2,2-dimethylcyclobutyl)methyl acetate obtained as in Example 35 was separated by 10% silver nitrate silica gel column chromatography (hexane:ethyl acetate=100:1). After the separation, they were mixed in a weight ratio of 100:43:4, 100:5:1, and 100:96:96. The mixtures were loaded each on a rubber cap made of isoprene each in an amount of 200 μg of cis-(3-isopropenyl-2,2-dimethylcyclobutyl)methyl acetate to prepare Lures A, B and C shown in the Table 1 below.
Lures A, B and C and the commercially available lure, Pherodis Planococcus citri (Koppert Biological Systems), were attached each to a sticky. Those and a sticky trap without a lure (blank) were placed in a navel orange field in Port Elizabeth, South Africa. Then, the number of lured and killed adult males of Planococcus citri (generic name: Citrus mealybug) in each trap was counted every other week. Each lure was changed every month.

[2] = test system: Planococcus citri; settings: J. Econ. Entomol. 97, 361 (2004); cited from earlier work

Compound	lure-inhibitory activity (surmised from the lure comparison) [1]	sex pheromone activity / effect on the attraction [2]
C=C(C)[C@H]1C[C@H](COC(C)=O)C1(C)C (relative stereo) [trans-(3-isopropenyl-2,2-dimethylcyclobutyl)methyl acetate]	lure-inhibitory activity	–
CC(=O)OCC1CC(=C(C)C)C1(C)C (stereo not drawn) [(3-isopropylidene-2,2-dimethylcyclobutyl)methyl acetate]	lure-inhibitory activity	–
C=C(C)[C@@H]1C[C@H](COC(C)=O)C1(C)C [(1S,3S)-(3-isopropenyl-2,2-dimethylcyclobutyl) methyl acetate]	–	not a sex pheromone substance, but does not disturb the attraction
